In PMC5798851, “The structure of FIV reverse transcriptase and its implications for non-nucleoside inhibitor resistance” (PLoS Pathogens, 2018):
Where two headings read alike, the source gives them in different places.

Experiments:
[1] = target: T1, HIV-1 RT (Human immunodeficiency virus type 1 group M subtype B, UniProt P03366); format: biochemical
T1 construct: HIV-1 RT construct, containing p66 and protease coding regions in pT5M plasmid; His-tag (implied by cobalt-resin purification); made in house; host or cells: E. coli BL21(DE3)
Description: (§1) DNA-dependent DNA polymerization activity of RT enzymes was assessed using a DNA primer/template prepared by annealing of 70-mer ssDNA template with a complementary 25-mer ssDNA primer labeled with 6-FAM at 5’-end (Integrated DNA Technologies).
(§2) Reactions were incubated for 30 minutes at 37°C and stopped using urea sample loading buffer and heating at 95°C for 10 minutes. Reaction products were resolved using denaturing urea polyacrylamide gel electrophoresis (S5B Fig). Percentage RT activities represent percentile of band-intensities of polymerized product divided by those of template/primer substrate.

[2] = target: T2, mutated fRT (FIVm) (Feline immunodeficiency virus, UniProt P16088, A293E/G294T/K290I/R289S/R297I); assay: DNA-dependent DNA polymerization activity assay, mutant FIV RT; format: biochemical, feline immunodeficiency virus (FIV); details: 0.15 μM RT, 30 minutes at 37°C
T2 construct: The p66 subunit (residues 1–554) was cloned into pET22b; p51 subunit (residues 1–430) in pET28b (kan resistance, Novagen) with a thrombin-cleavable His-tag at the N-terminus; His-tag (thrombin-cleavable) (N, cleaved yes); made in house; host or cells: E. coli ArcticExpress
Description: as §1
as §2, with “Reaction mixtures contained 100 mM Tris-HCl pH 7.5, 75 mM KCl, 0.5 mM dNTP mixture, 60 mM MgCl2, 5 mM DTT and 0.15 μM RT, 0.5 μM DNA substrate. Reactions” for “Reactions”

[3] = target: T1, HIV-1 RT; assay: biochemical; format: binding
[4] = target: T3, FIV RT (fRT) (Feline immunodeficiency virus, UniProt P16088); assay: Microscale thermophoresis (MST) NNRTI binding affinity to wild type FIV RT
T3 construct: The p66 subunit (residues 1–554) was cloned into pET22b; p51 subunit (residues 1–430) in pET28b (kan resistance, Novagen) with a thrombin-cleavable His-tag at the N-terminus; His-tag (thrombin-cleavable) (N, cleaved yes); made in house; host or cells: E. coli ArcticExpress
Description: (§3) RT proteins were labeled with Monolith NT protein labeling kit BLUE-NHS (NanoTemper Technologies) and eluted in microscale thermophoresis (MST) buffer (50 mm Tris-HCl, pH 7.0, 300 mM NaCl and 0.05% Tween-20).

[5] = target: T4, mutant fRT (FIVm; R133S, K134I, A137E, G138T and R141I in FIV p51) (Feline immunodeficiency virus, UniProt P16088, A293E/G294T/K290I/R289S/R297I); assay: Microscale thermophoresis (MST) NNRTI binding affinity to p51-loop mutant FIV RT
T4 construct: The p66 subunit (residues 1–554) was cloned into pET22b; p51 subunit (residues 1–430) in pET28b (kan resistance, Novagen) with a thrombin-cleavable His-tag at the N-terminus; His-tag (thrombin-cleavable) (N, cleaved yes); made in house; host or cells: E. coli ArcticExpress
From the text: (§4) The two subunits of FIV RT (Petaluma) were subcloned into separate plasmids to facilitate site-specific mutagenesis. […] FIV RT mutant (FIVm) was generated by introducing the specific mutations into the p51 subunit using QuikChange Kit (Agilent Technologies Genomics). HIV-1 RT construct, containing p66 and protease coding regions in pT5M plasmid, was a generous gift of Prof. Stephen H. Hughes (National Cancer Institute- Frederick, MD, USA).
as §3

[6] = tested on: mutant fRT (FIVm; R133S, K134I, A137E, G138T and R141I in FIV p51); assay: as above; set-up: species or system feline immunodeficiency virus (FIV); details: MST; for binding affinity to mutated fRT as compared to HIV-1 RT: FIVm versus HIV-1 RT
From the text: as §4, §3

| Structure (SMILES) | inhibition of HIV-1 RT DNA polymerization activity (in words) [1] | effect on DNA polymerization activity of the mutated fRT (in words) [2] | Kd [3] | binding to fRT (in words) [4] | Kd [5] | binding affinity to mutated fRT as compared to HIV-1 RT [6] | inhibition of HIV-1 RT DNA polymerization activity (in words) ([1]; 0.15 μM RT, 30 minutes at 37°C) | Kd ([3]; MST, mean ±SD, read-out: Kd, binding to HIV-1 RT) | Kd ([4]; mean ±SD) | binding affinity to mutated fRT as compared to fRT ([6]; FIVm versus wild type fRT) |
| --- | --- | --- | --- | --- | --- | --- | --- | --- | --- | --- |
| CC(C)Nc1cccnc1N1CCN(C(=O)c2cc3cc(NS(C)(=O)=O)ccc3[nH]2)CC1 [DLV, Delavirdine] | potently inhibiting | none of the three inhibitors EFZ, DLV or RPV reduced the activity | 617 ± 100 nM | fail to bind | 227 ± 71 nM | twice the affinity |  |  |  |  |
| O=C1Nc2ccc(Cl)cc2[C@@](C#CC2CC2)(C(F)(F)F)O1 [EFZ, Efavirenz] |  | none of the three inhibitors EFZ, DLV or RPV reduced the activity |  | fail to bind |  | comparable affinities |  |  |  |  |
| Cc1cc(/C=C/C#N)cc(C)c1Nc1ccnc(Nc2ccc(C#N)cc2)n1 [RPV, Rilpivirine] |  | none of the three inhibitors EFZ, DLV or RPV reduced the activity |  | able to bind to fRT with comparable affinity to HIV-1 RT | 368 ± 60 nM | comparable affinities | potently inhibiting | 539 ± 25 nM | 796 ± 76 nM | twice the affinity |
